A short description of the series: Waters ACQUITY UPLC BEH C18, 100 × 2.1 mm, 1.7 µm, 40 °C, 0.3 to 0.4 mL/min, estimated dead time 0.63 min; A: water + 0.1% formic acid; B: methanol + 0.1% formic acid; gradient (min/%B) 0/0.5 0.1/0.5 10/80 10.1/99.5 12/99.5. The settings on record: stereoisomer not certain.
As for `OCC1OC(Oc2cc3c(O)cc(O)cc3[o+]c2-c2cc(O)c(O)c(O)c2)C(O)C(O)C1O` (configuration not stated), the LC retention time was 2.61 min.
For the compound `Nc1nc2c(ncn2C2OC(CO)C(O)C2O)c(=O)[nH]1` (configuration not stated), the LC retention time is 1.93 min.
Turning to `COc1ccc2c(c1)OC(OC1OC(CO)C(O)C(O)C1O)C(=O)N2O` (configuration not stated), the LC retention time is 3.5 min.
On to `CC1OC(Oc2cc(O)c3c(=O)c(OC4OC(COC5OC(CO)C(O)C(O)C5O)C(O)C(O)C4O)c(-c4ccc(O)cc4)oc3c2)C(O)C(O)C1O` (configuration not stated), for which the LC retention time is 3.62 min.
In the case of `COc1cc(C=Cc2ccc(O)cc2)cc(OC)c1`, the LC retention time is 8.02 min.
For `CC=C1CN2C3CC1C(CO)C2Cc1c3[nH]c2ccccc12` (configuration not stated), the LC retention time is 3.58 min.
The result for `CC(C)=CCCC(C)(OC1OC(COC2OCC(O)C(O)C2O)C(O)C(O)C1O)C1CCC2(C)C1C(O)CC1C3(C)CCC(OC4OC(CO)C(O)C(O)C4OC4OC(CO)C(O)C(O)C4O)C(C)(C)C3CCC12C` (configuration not stated) reads 6.14 min.
The result for `CC1CCC2(OC1O)OC1CC3C4CC=C5CC(OC6OC(CO)C(OC7OC(C)C(O)C(O)C7O)C(O)C6OC6OC(C)C(O)C(O)C6O)CCC5(C)C4CCC3(C)C1C2C` (configuration not stated) reads 5.71 min; that for `COc1cc(C(C)=O)cc(OC)c1O`, 4.31 min; that for `Cc1[nH]ccc2c1[nH]c1cc(=O)ccc12`, 3.18 min.
As to `COc1ccc(-c2coc3cc(O)c(CC=C(C)C)c(O)c3c2=O)cc1`, the LC retention time is 8.02 min.
The result for `CC(C)=CCc1cc(-c2coc3cc(O)c(CC=C(C)C)c(O)c3c2=O)cc(O)c1O` reads 8.06 min.
The result for `CCC1CN2CCC3(O)C(=Nc4cccc(OC)c43)C2CC1C(=COC)C(=O)OC` (configuration not stated) reads 4.26 min; that for `COc1c(O)cc2oc(-c3ccc(O)c(O)c3)c(OC3OC(COC4OC(CO)C(O)C(O)C4O)C(O)C(O)C3O)c(=O)c2c1O` (configuration not stated), 3.63 min; that for `CC1=C2C(=O)C3C(CC=C4CC(OC5OC(CO)C(O)C(O)C5O)CCC43C)C2CCC12OC1CC(C)CNC1C2C` (configuration not stated), 4.01 min.
The result for `CC(CN)CCC1(O)OC2CC3C4CCC5CC(OC6OC(CO)C(OC7OC(CO)C(O)C(OC8OCC(O)C(O)C8O)C7OC7OC(CO)C(O)C(O)C7O)C(O)C6O)CCC5(C)C4CCC3(C)C2C1C` (configuration not stated) reads 4.31 min; that for `CC1OC(Oc2c(-c3ccc(O)c(O)c3)oc3cc(O)cc(O)c3c2=O)C(OC2OC(COC(=O)C=Cc3ccc(O)cc3)C(O)C(O)C2O)C(O)C1O` (configuration not stated), 4.67 min.
On to `COc1ccc(-c2oc3c(CC=C(C)C)c(OC4OC(CO)C(O)C(O)C4O)cc(O)c3c(=O)c2OC2OC(C)C(O)C(O)C2O)cc1` (configuration not stated), for which the LC retention time is 5.43 min.
With `CC1CCC2C(C)C3C(CC4C5CC=C6CC(OC7OC(CO)C(OC8OC(C)C(O)C(O)C8O)C(O)C7OC7OC(C)C(O)C(O)C7O)CCC6(C)C5CCC43C)N2C1` (configuration not stated), the LC retention time was 5.01 min.
As for `O=C(O)C=Cc1ccccc1`, the figure is 5.42 min; as for `O=c1ccc2ccc(O)c(O)c2o1`, 3.65 min; as for `CC(CCC1(O)OC2CC3C4CC=C5CC(OC6OC(COC7OC(C)C(O)C(O)C7OC7OC(C)C(O)C(O)C7OC7OC(C)C(O)C(O)C7O)C(O)C(O)C6O)CCC5(C)C4CCC3(C)C2C1C)COC1OC(CO)C(O)C(O)C1O` (configuration not stated), 5.1 min.
As for `CC(C)=CCc1cc(-c2coc3cc(O)ccc3c2=O)ccc1O`, the LC retention time was 7.24 min.
Turning to `Oc1ccc(CCc2cc(O)cc(O)c2)cc1`, the LC retention time was 5.15 min.
The result for `O=C(C=Cc1ccc(O)cc1)Oc1cc(O)c2c(=O)c(OC3OC(CO)C(O)C(O)C3O)c(-c3ccc(O)cc3)oc2c1` (configuration not stated) reads 2.35 min; that for `O=c1cc(-c2ccc(OC3OC(CO)C(O)C(O)C3O)c(O)c2)oc2cc(O)cc(O)c12` (configuration not stated), 4.45 min.
In the case of `C=C1C2CC3(C1O)C1CC4C5(C)CCC(O)C4(C1N(CC)C5)C3CC2O` (configuration not stated), the LC retention time was 3.05 min.

Values taken from the RepoRT retention time repository.
